Experimental data from patent publication US20160220567A1, “COMPOSITION FOR TREATING OR PREVENTING BONE DISEASES, COMPRISING HALOFUGINONE AS ACTIVE INGREDIENT” (THE CATHOLIC UNIVERSITY OF KOREA INDUSTRY-ACADEMIC …, priority 2013, published 2016).

Columns and labels:
[1] = system: mouse model with collagen-induced arthritis; assay: Arthritis index score in mouse model with collagen-induced arthritis (CIA); format: in vivo
Method: (§1) For the construction of a mouse model with collagen-induced arthritis (hereinafter, referred to as “CIA”), a 6-week old male DBA/1J mouse was subjected to primary immunization by intradermal injection after mixing the bovine type II collagen (hereinafter, referred to as “CII”) and complete Freud's adjuvant (CFA) in an amount of 100 μL, respectively. After a week thereafter, halofuginone was injected intraperitoneally at 3 day intervals at a concentration of 100 μg/kg and 500 μg/kg, respectively (9 weeks).
To examine the therapeutic effect of treating halofuginone of the present invention on arthritis, the clinical score of the joint inflammation of the mouse prepared in Example <1-1> (the mouse with arthritis injected with halofuginone) was measured while observing the mouse. The group treated with a solution in which DMSO was diluted in saline was used as the control group.
The clinical score was evaluated using a clinical score system, in which the respective score for swelling and redness on toes or caudal regions was determined by observing daily the degree of the progress of the joint inflammation on the arthritis lesion of the mouse by the naked eye.

[2] = system: anti-CII-specific IgG, IgG1, and IgG2a; assay: Type II collagen-specific IgG, IgG1 and IgG2a in sera by ELISA; format: in vivo, mouse; conditions: CIA mice, sera 4 weeks after injection, FIG. 1D
Method: as §1
The concentrations of murine anti-CII-specific IgG, IgG1, and IgG2a were measured by ELISA method by collecting sera from a mouse with arthritis 4 weeks after injecting the mouse with halofuginone (Bethyl Lab Co., Montgomery, Tex., USA). The group treated with a solution in which DMSO was diluted in saline was used as the control group.
The method of measuring the anti-CII-specific IgG, IgG1, and IgG2a antibodies is as follows. The CII was diluted in 0.05M sodium carbonate coating buffer (pH 9.6) at a concentration of 4 μg/mL, coated onto a 96-well microtiter plate, and placed at 4° C. for 18 hours. After removing the coated solution, for the inhibition of non-specific binding, TBS (pH 8.0) containing 1% bovine serum albumin (BSA: Amre-sco, solon, Ohio, USA) was added in an amount of 200 μL thereto and reacted at room temperature for 1 hour. For the measurement of anti-CII-specific IgG, IgG1, and IgG2a antibodies, the specimen was diluted at a 1:1,000 ratio, and in particular, TBS (pH 8.0) containing 1% BSA and 0.05% Tween 20 (Amresco) was used as the diluted solution. Then, the sera sample diluted in advance was added to each well in an amount of 50 μL and reacted at room temperature for 1 hour. […] The absorbance of the resultant was measured at 450 nm using the ELISA reader and the result of antibody measurement was indicated by absorbance itself.

Th17 cells = assay: mRNA expression of IL-17, CCR6, SOCS3 and Foxp3 in Th17 cells by real-time PCR; format: cell-based, mouse; conditions: FIG. 3B
Method: The real-time PCR was performed using the LightCycler 2.0 System Instrument and the reaction compounds were prepared by mixing 1 μL of each cDNA, 10 μL of premix Ex Taq as an enzyme for the initiation, and each primer pair to a final volume of 20 μL using distilled water. The reaction conditions were: reacted at 95° C. for 10 minutes, followed by a total of 50 cycles consisting of denaturation at 95° C. for 10 seconds, annealing at 60° C. for 5 seconds, and extension at 72° C. for 10 seconds. The values of cycle threshold (Ct) were analyzed and the amount of mRNA expression for each target was indicated in terms of the amount of beta-actin mRNA expression and the relative quantity. The primers used are shown below.
Splenocytes were obtained from mice, that is, the spleens removed from the mice and the spleen tissues were thinly ground using a tearing slide and the red blood cells (RBC) in the splenocytes were removed with the RBC lysis solution. Then, PBS buffer solution was added thereto, and the mixture was centrifuged, and washed to obtain splenocytes. Then, the singe cells (1 ? 10^6) isolated from the spleens were aliquoted into a 24-well plate coated with anti-CD3 antibody (1 μg/mL) were treated under the condition of capable of stimulating Th17 cells (anti-CD28 antibody (1 μg/mL), TGF-β (2 ng/ mL), IL-6 (20 ng/mL), anti-IL-4 (10 μg/mL), and anti-IFN-γ (10 μg/mL); the condition of capable of stimulating Th1 cells (anti-CD28 antibody (1 μg/mL), IL-12 (10 ng/mL), and anti-IL-4 (10 μg/mL)); or the condition of capable of stimulating Th2 cells (anti-CD28 antibody (1 μg/mL), IL-4 (10 ng/mL), and anti-IFN-γ (10 μg/mL)); and the cells were cultured for 3 days, and in particular, cultured after treating the cells with halofuginone at respective concentration and cultured. Specifically, DMSO treatment was used for the control group.
The expression of IL-17, CCR6, SOCS3, and Foxp3 in the cells under the condition of Example <2-2> was analyzed by real-time PCR as described in Example <1-6>. The primers used are shown below.

ERK of Th17 cells = assay: pERK expression in Th17 cells by western blotting; format: cell-based, mouse; conditions: Th17 cells stimulated with halofuginone, FIG. 3C
Method: To examine whether halofuginone activates the ERK of Th17 cells, western blotting was performed for pERK in the cells under the condition of Example <2-1>. To this end, the Th17 cells were lysed in a lysis buffer [20 mM Tris-HCl (pH 7.5), 150 mM NaCl, 1% Triton X-100, 1 mM EDTA, 1 mM EGTA, 1 mM phenylmethylsulfonyl fluoride, 10 mM β-glycerophosphate, 1 mM NaF, 1 mM Na3VO4, and 19 Protease Inhibitow Cocktail™ (Roche Molecular Biochemicals, Indianapolis, Ind., USA)]. From the lysate, an equal amount of the protein (about 20 μg) was separated by sodium dodecyl sulfate-polyacrylamide gel electrophoresis and then transferred to a nitrocellulose membrane. Then, the blots were probed with NFATc1 and phospho-Smad2/3 (all from Santa Cruz Biotechnology), Stat3, Stat5, ERK, phospho-Stat3, phospho-stat5, and phospho-ERK (all from Cell Signaling Technology), and β-actin (Sigma) antibodies, and confirmed by ECL (Amersham, Del., USA).

O=C(C[C@H]1NCCC[C@@H]1O)Cn1cnc2cc(Br)c(Cl)cc2c1=O (racemic) [halofuginone]
arthritis index score ([1]; CIA DBA/1J mice, 100 and 500 μg/kg intraperitoneally at 3 day intervals, vs DMSO in saline control, FIG. 1A): decrease in the arthritis index score in a dose-dependent manner | arthritis lesion by the naked eye ([1]; CIA mice, 500 μg/kg): no arthritis lesion at all | concentration of IgG1 within the sera [2]: significantly decreased | concentration of IgG2a within the sera [2]: significantly decreased | concentration of IgG within the sera [2]: significantly decreased | expression of CCR6 (Th17 cells): inhibits | expression of Foxp3 (Th17 cells): increasing | expression of IL-17 (Th17 cells): inhibits | expression of SOCS (Th17 cells): increasing | expression of pERK (ERK of Th17 cells): increased
